# Reference: US12329739B2, “Isoflavonoid compounds and methods for the treatment of cancer” (Aardvark Therapeutics, Inc., priority 2010, dated 2025)
# Legend:
# [1] = test system: SK-Hep-1; test: MTT proliferation assay, SK-Hep-1; format: cell-based, human; details: Liver, SK-Hep-1, 120 h of exposure
# Experimental: (§1) The human hepatocellular carcinoma lines HepG2 (HB-8065), SK-HEP-1 (HTB-52) and the normal human lung fibroblast line IMR-90 (CCL-186) were cultured in Minimum Essential Eagles Medium containing 2 mM L-glutamine, 2.2 g/L sodium bicarbonate, supplemented with 1 mM sodium pyruvate and 0.1 mM non-essential amino acids. The human hepatocellular carcinoma line JHH-1 (JCRB1062) was cultured in Williams E Medium (Invitrogen) containing 2.2 g/L sodium bicarbonate, supplemented with 2 mM L-glutamine. The hepatocellular carcinoma line HuH-7 (JCRB0403) was cultured in DMEM, supplemented with 2 mM L-glutamine.
# (§2) Proliferation Assays. IC50 values were determined for each cell line. Cells were seeded in 96-well plates at an appropriate cell density as determined from growth kinetics analysis and cultured for 5 days in the absence and presence of the test compounds. Cell proliferation was assessed after the addition of 20 μl of 3-4,5 dimethylthiazol-2,5-diphenyl tetrazolium bromide (MTT, 5 mg/ml in PBS, Sigma) for 5 hrs at 37° C. according to manufacturer's instructions. IC50 values were calculated from semi-log plots of % of control proliferation on the y-axis against log dose on the x-axis.
# (§3) Anti-proliferative Activity of Isoflavonoid Derivatives. IC50 values were determined for each cell line after 120 h of exposure.
# [2] = test system: R-182; test: MTT proliferation assay, R-182; format: cell-based; details: Ovarian, R-182, 120 h of exposure
# Text: Tissue culture. The multidrug resistant primary epithelial ovarian cancer cell line R-182 TARA was a gift from Dr. Gil Mor (Yale University, New Haven, CT, USA). This cell line was derived by explant from ovarian tumors and cultured as previously described. All other cell lines were purchased from American Type Culture Collection (ATCC, Manassas, VA, USA) with the exception of MKN1, HuH-7, JHH-1, which were purchased from the Japanese Collection of Research Bioresources (JCRB, Osaka, Japan), and OE19 which was purchased from the European Collection of Cell Cultures (ECACC, Salisbury, UK).
# as §2, §3
# [3] = test system: 4405; test: MTT proliferation assay, 4405; format: cell-based; details: Melanoma, 4405, 120 h of exposure
# Experimental: as §2, §3
# [4] = test system: PC3; test: MTT proliferation assay, PC3; format: cell-based; details: Prostate, PC3, 120 h of exposure
# Experimental: as §2, §3
# [5] = test system: A2058; test: MTT proliferation assay, A2058; format: cell-based; details: Melanoma, A2058, 120 h of exposure
# Experimental: as §2, §3
# [6] = test system: COLO205; test: MTT proliferation assay, COLO205; format: cell-based, human; details: CRC, COLO205, 120 h of exposure
# Experimental: (§4) The human non-small cell lung adenocarcinoma lines NCI-H1299 (CRL-5803), NCI-H460 (HTB-177), NCI-H358 (CRL-5807), NCI-H838 (CRL-5844), the human colorectal adenocarcinoma lines COLO 205 (CCL-222), HCT-15 (CCL-225) and the human gastric cancer cell line NCI-N87 (CRL-5822) were cultured in RPMI 1640 medium containing 2 g/L sodium bicarbonate (Hyclone/Invitrogen) supplemented with 2 mM L-glutamine (Gibco) 1 mM sodium pyruvate (Sigma), 10 mM HEPES (Sigma) and 4500 mg/L glucose (Sigma). The human non-small cell lung adenocarcinoma line NCI-H2126 (CCL-256) was cultured in DMEM:F12(1:1) (Hyclone/Invitrogen) containing 2.5 mM L-glutamine 2.4 g/L sodium bicarbonate supplemented with 5% fetal bovine serum (FBS), an additional 2 mM L-glutamine, 15 mM HEPES, 0.005 mg/ml insulin (Sigma), 0.01 mg/ml transferrin (Sigma), 30 nM sodium selenite (Sigma), 10 nM hydrocortisone (Sigma) and 10 nM beta-estradiol (Sigma). The human colorectal adenocarcinoma line HT-29 (HTB-38) and the human gastric cancer cell lines OE-19 (#96071721) and MKN1 (JCRB0252) were cultured in RPMI 1640 media supplemented with 2 mM L-glutamine.
# as §2, §3
# [7] = test system: SKBR-3; test: MTT proliferation assay, SKBR-3; format: cell-based, human; details: Homo sapiens, SK-BR-3, 120 h, Breast, SKBR-3, 120 h of exposure
# Experimental: The human colorectal adenocarcinoma line HCT-116 (CCL-247) and the human breast adenocarcinoma line SK-BR-3 (HTB-30) were cultured in McCoy's 5a Medium (Invitrogen) containing 1.5 mM L-glutamine and 2.2 g/L sodium bicarbonate. The human colorectal adenocarcinoma line SW620 (CCL-227) was cultured in Leibovitz's L-15 Medium (Invitrogen) containing 2.05 mM L-glutamine.
# as §2, §3
# [8] = test system: MM200; test: MTT proliferation assay, MM200; format: cell-based; details: Melanoma, MM200, 120 h of exposure
# Experimental: as §2, §3
# [9] = test system: LNCaP; test: MTT proliferation assay, LNCaP; format: cell-based; details: Prostate, 120 h of exposure
# Experimental: as §2, §3
# [10] = test system: HepG2; test: MTT proliferation assay, HepG2; format: cell-based, human; details: Liver, HepG2, 120 h of exposure
# Experimental: as §1, §2, §3
# [11] = test system: NCI-H460; test: MTT proliferation assay, NCI-H460; format: cell-based, human; details: NSCLC, NCI-H460, 120 h of exposure
# Experimental: as §4, §2, §3
# [12] = test system: A2780; test: MTT proliferation assay, A2780; format: cell-based; details: Ovarian, A2780, 120 h of exposure
# Experimental: as §2, §3
# [13] = test system: CALU3; test: MTT proliferation assay, CALU3; format: cell-based; details: NSCLC, CALU3, 120 h of exposure
# Experimental: as §2, §3
# [14] = test system: HuH-7; test: MTT proliferation assay, HuH-7; format: cell-based, human; details: Liver, HuH-7, 120 h of exposure
# Experimental: as §1, §2, §3
# [15] = test system: DU145; test: MTT proliferation assay, DU145; format: cell-based; details: Prostate, DU145, 120 h of exposure
# Experimental: as §2, §3
# [16] = test system: A549; test: MTT proliferation assay, A549; format: cell-based; details: NSCLC, A549, 120 h of exposure
# Experimental: as §2, §3
# [17] = test system: CP70; test: MTT proliferation assay, CP70; format: cell-based; details: Ovarian, CP70, 120 h of exposure
# Experimental: as §2, §3
# [18] = test system: MDA-MB-468; test: MTT proliferation assay, MDA-MB-468; format: cell-based, human; details: Breast, MDA-MB-468, 120 h of exposure
# Experimental: The human gastric cancer cell line AGS (CRL-1739) was cultured in Hams F-12K (Kaighans modification) medium containing 2 mM L-glutamine, 2.5 g/L sodium bicarbonate and 2 mM sodium pyruvate. The human breast adenocarcinoma line MDA-MB-468 (HTB-132) was cultured in DMEM:F12 (1:1) medium containing 2.5 mM L-glutamine, 2.4 g/L sodium bicarbonate, supplemented with an additional 2 mM L-glutamine.
# as §2, §3
# [19] = Homo sapiens, MDA-MB-468, 120 h
Compound,"IC50 ([1]; Homo sapiens, SK-HEP1)",IC50 [2],IC50 [3],"IC50 ([4]; Homo sapiens, PC-3, 120 h)","IC50 ([5]; Homo sapiens, A2058, 120 h)","IC50 ([6]; Homo sapiens, COLO 205)",IC50 [7],IC50 [8],IC50 ([9]; Homo sapiens),IC50 ([10]; Homo sapiens),IC50 ([11]; Homo sapiens),"IC50 ([12]; Homo sapiens, A2780, 120 h)","IC50 ([13]; Homo sapiens, Calu-3)",IC50 ([14]; Homo sapiens),"IC50 ([15]; Homo sapiens, DU-145)",IC50 ([16]; Homo sapiens),IC50 ([17]; 120 h),"IC50 [18, 19]",further results
"Cc1c(O)ccc2c1OC[C@@H](c1ccc(O)cc1)[C@H]2c1ccc(O)cc1 [d-5, d-cis-3-(4-hydroxyphenyl)-4-(4-hydroxyphenyl)-8-methylchroman-7-ol]",≤ 150 nM,≤ 150 nM,≤ 150 nM,≤ 150 nM,≤ 150 nM,0.51 to 1.5 µM,≤ 150 nM,150 to 500 nM,≤ 150 nM,≤ 150 nM,≤ 150 nM,≤ 150 nM,≤ 150 nM,≤ 150 nM,≤ 150 nM,150 to 500 nM,≤ 150 nM,≤ 150 nM,–
"Cc1cc(C2c3ccc(O)c(C)c3OCC2c2ccc(O)cc2)ccc1O (stereo not drawn) [Compound 6, 3-(4-hydroxyphenyl)-4-(4-hydroxy-3-methylphenyl)-8-methylchroman-7-ol]",150 to 500 nM,150 to 500 nM,150 to 500 nM,150 to 500 nM,150 to 500 nM,1.6 to 10 µM,≤ 150 nM,510 to 1500 nM,510 to 1500 nM,150 to 500 nM,150 to 500 nM,150 to 500 nM,150 to 500 nM,150 to 500 nM,150 to 500 nM,510 to 1500 nM,510 to 1500 nM,150 to 500 nM,–
"COc1ccc([C@@H]2c3ccc(O)c(C)c3OC[C@@H]2c2ccc(O)cc2)cc1C [l-7, l-cis-3-(4-hydroxyphenyl)-4-(4-methoxy-3-methylphenyl)-8-methylchroman-7-ol]",≥ 10000 nM,≥ 10000 nM,≥ 10000 nM,≥ 10000 nM,≥ 10000 nM,≥ 10 µM,–,–,≥ 10000 nM,≥ 10000 nM,≥ 10000 nM,≥ 10000 nM,≥ 10000 nM,≥ 10000 nM,≥ 10000 nM,≥ 10000 nM,≥ 10000 nM,≥ 10000 nM,–
"COc1ccc(C2c3ccc(O)c(C)c3OCC2c2ccc(O)cc2)cc1C (stereo not drawn) [Compound 7, 3-(4-hydroxyphenyl)-4-(4-methoxy-3-methylphenyl)-8-methylchroman-7-ol]",1600 to 10000 nM,1600 to 10000 nM,1600 to 10000 nM,1600 to 10000 nM,1600 to 10000 nM,≥ 10 µM,510 to 1500 nM,≥ 10000 nM,1600 to 10000 nM,1600 to 10000 nM,1600 to 10000 nM,1600 to 10000 nM,1600 to 10000 nM,1600 to 10000 nM,1600 to 10000 nM,1600 to 10000 nM,1600 to 10000 nM,1600 to 10000 nM,–
"Cc1cc([C@H]2c3ccc(O)c(C)c3OC[C@H]2c2ccc(O)cc2)ccc1O (relative stereo) [d-6, d-cis-3-(4-hydroxyphenyl)-4-(4-hydroxy-3-methylphenyl)-8-methylchroman-7-ol]",–,≤ 150 nM,150 to 500 nM,–,–,–,–,–,–,–,–,–,–,–,–,–,–,–,IC50 [1]: ≤ 150 nM; IC50 [4]: 150 to 500 nM; IC50 [5]: ≤ 150 nM; IC50 [6]: 1.6 to 10 µM; IC50 [9]: 150 to 500 nM; IC50 [10]: ≤ 150 nM; IC50 [11]: 150 to 500 nM; IC50 [12]: 150 to 500 nM; IC50 [13]: 150 to 500 nM; IC50 [14]: 150 to 500 nM; IC50 [15]: 150 to 500 nM; IC50 [16]: 150 to 500 nM; IC50 [17]: 150 to 500 nM; IC50 [18]: ≤ 150 nM
"COc1ccc([C@H]2c3ccc(O)c(C)c3OC[C@H]2c2ccc(O)cc2)cc1C [d-7, d-cis-3-(4-hydroxyphenyl)-4-(4-methoxy-3-methylphenyl)-8-methylchroman-7-ol]",1600 to 10000 nM,510 to 1500 nM,1600 to 10000 nM,510 to 1500 nM,510 to 1500 nM,≥ 10 µM,–,–,1600 to 10000 nM,510 to 1500 nM,1600 to 10000 nM,510 to 1500 nM,1600 to 10000 nM,510 to 1500 nM,510 to 1500 nM,1600 to 10000 nM,510 to 1500 nM,150 to 500 nM,–
